Results taken from publication PMC12111156, “Nitazoxanide Analogs: Synthesis, In Vitro Giardicidal Activity, and Effects on Giardia lamblia Metabolic Gene Expression” (International Journal of Molecular Sciences, 2025).
pIC50: −log10 of the molar value.

Legend:
[1] = system: G. lamblia strain resistant to nitazoxanide; assay: Giardicidal activity in nitazoxanide-resistant strain (trypan blue count); type: cell-based; conditions: Giardia duodenalis, 48 h, read-out: IC50 G. lamblia (NTZ Resistant)
Method: A pre-culture at confluence was used as a starting point, and a concentration–response curve was plotted using an initial compound concentration of 25 μM in a final volume of 1.5 mL of TYI-S-33 medium, followed by serial dilutions of the compound. Each treatment was inoculated with 1.5 × 10^5 trophozoites and incubated for 48 h at 37 °C. At the end of the incubation, the number of trophozoites was determined using the trypan blue assay and by counting in a Neubauer chamber. The viability percentage at each compound concentration was calculated using the negative control as a reference.

[2] = system: G. lamblia strain ATCC 30957; assay: Viability of Giardia lamblia trophozoite culture (trypan blue count); type: cell-based
Method: Viability analysis was performed on G. lamblia strain ATCC 30957 grown in TYI-S-33 medium supplemented with 10% fetal bovine serum (FBS) and an antibiotic. Pre-culture was performed in 16 × 150 mm borosilicate tubes with a medium inoculated with 2 × 10^5 trophozoites and incubated at 37 °C for 48 h. For the recovery of the trophozoites, the vial was incubated in ice for 8 min and centrifuged for 6 min at 2000 rpm. The concentrated trophozoites were suspended in 1 mL of phosphate-buffered saline (PBS), and the number of trophozoites was counted by placing a 1:1 volume ratio of cell culture and trypan blue dye (4 g/L); then, a homogeneous drop of the mixture was taken and placed in the Neubauer chamber, and the total cells were counted.
The curves were plotted for concentrations of 0–50 µM of each compound. The assay was performed by placing 1.5 × 10^5 cells in 1.5 mL microcentrifuge tubes with a supplemented medium and different concentrations of each compound (0–50 µM). The negative control was performed under the same conditions without a compound, and the drugs NTZ and MTZ were used as positive controls. The samples were incubated for 48 h at 37 °C. At the end of the incubation, the cell viability count was performed using the trypan blue technique. The viability calculation was performed following the formula nv/(nv + nm), where nv represents the live cells and nm represents the dead cells; the viability value obtained was expressed as a percentage. The IC50 value of each compound was determined using the IC50 Calculator software (https://www.aatbio.com/tools/ic50-calculator).

[3] = system: G6PD::6PGL enzyme of G. lamblia; conditions: cited from earlier work

## CCCCC(=O)Nc1ncc([N+](=O)[O-])s1 [FLP-2, N-(5-Nitro-1,3-thiazol-2-yl)pentanamide]
[1]
  pIC50: 6.43
[2]; concentration not given
  Inhibition of growth of G. lamblia parasite culture: more than 98%
[2]; ratio of IC50 values, ATCC strain
  Relative potency compared with NTZ: 1.2 times
[3]
  Inhibition of the G6PD::6PGL enzyme (in words): inhibitors of the G6PD enzyme
